18 molecules from US11427615B2, “Peptide compound and application thereof, and composition containing peptide compound” (XDCEXPLORER (SHANGHAI) CO., LTD., priority 2017, dated 2022) can be followed below.

The target in the assay is T1, human kiss1 receptor (GPR54) (Homo sapiens, UniProt Q969F8).
T1 construct: host or cells: NFAT-bla CHO-K1 cells (Chinese hamster ovary), purchased recombinant cell line
The experiment in a line: Kiss1 receptor (GPR54) binding activity of agonists, FRET detection in NFAT-bla CHO-K1 cells. In kind it is cell-based.

Where [1] appears, read: GPR54, measured according to the method of effect Embodiment 1, preliminary data, read-out: Preliminary measurement data (GPR54) EC50.

Read-outs that look alike come from different tables or passages of the source. Starred links: 1 amine or outer side, 2 acyl side, 3 side chain; linkers in the order of their positions; H or OH if unused. Non-standard residues stand in square brackets, D forms with d. Residues, ends and D or L forms follow the SMILES beside them. dPhe(2,4-Cl2) = N[C@H](Cc1ccc(Cl)cc1Cl)C(=O)O; Ala(2-furyl) = N[C@@H](Cc1ccco1)C(=O)O; Phe(4-F) = N[C@@H](Cc1ccc(F)cc1)C(=O)O; Pro(4,4-F2) = O=C(O)[C@@H]1CC(F)(F)CN1; dAla(2-furyl) = N[C@H](Cc1ccco1)C(=O)O; dPhe(4-F) = N[C@H](Cc1ccc(F)cc1)C(=O)O; Arg(Me) = CNC(=N)NCCC[C@H](N)C(=O)O; Hyp = O=C(O)[C@@H]1C[C@@H](O)CN1; azaPro = O=C(N1CCCN1[*:1])[*:2]; 2Thi = N[C@@H](Cc1cccs1)C(=O)O; NMeL = CN[C@@H](CC(C)C)C(=O)O; Pip = O=C(O)[C@@H]1CCCCN1; Ac6c = NC1(C(=O)O)CCCCC1; Aze = O=C(O)[C@@H]1CCN1; βAla = NCCC(=O)O

T1 sequence (Q969F8 whole entry): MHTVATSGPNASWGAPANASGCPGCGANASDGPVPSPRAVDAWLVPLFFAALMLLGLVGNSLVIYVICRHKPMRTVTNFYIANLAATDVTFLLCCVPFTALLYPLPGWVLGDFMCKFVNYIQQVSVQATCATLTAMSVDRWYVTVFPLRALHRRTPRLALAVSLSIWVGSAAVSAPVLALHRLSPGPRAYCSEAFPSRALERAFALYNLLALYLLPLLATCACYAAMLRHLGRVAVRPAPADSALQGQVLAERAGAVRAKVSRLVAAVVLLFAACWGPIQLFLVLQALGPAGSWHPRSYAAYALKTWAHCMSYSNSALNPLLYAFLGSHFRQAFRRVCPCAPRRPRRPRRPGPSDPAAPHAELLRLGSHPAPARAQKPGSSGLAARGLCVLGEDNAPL

Regarding `CNC(=N)NCCC[C@H](NC(=O)[C@H](CC(C)C)N(C)C(=O)CCNC(=O)[C@H](Cc1ccccc1)NC(=O)[C@@H](NC(=O)[C@H](CC(N)=O)NC(=O)[C@@H]1C[C@@H](O)CN1C(=O)[C@@H](Cc1ccc(Cl)cc1Cl)NC(C)=O)[C@@H](C)O)C(=O)N[C@@H](Cc1c[nH]c2ccccc12)C(N)=O` [YA-187, Ac-[D-Phe(2,4-DiCl)]-Hyp-Asn-Thr-Phe-BetaAla-NMeLeu-Arg(Me)-Trp-NH2] (Ac-[dPhe(2,4-Cl2)][Hyp]NTF[βAla][NMeL][Arg(Me)]W-NH2), the EC50 under setting [1] is 1.85 nM.

As for `CNC(=N)NCCC[C@H](NC(=O)[C@H](CC(C)C)NC(=O)[C@@H]1CCN1C(=O)[C@H](Cc1ccccc1)NC(=O)[C@@H](NC(=O)[C@H](CC(N)=O)NC(=O)[C@@H]1C[C@@H](O)CN1C(=O)[C@@H](Cc1ccc(Cl)cc1Cl)NC(C)=O)[C@@H](C)O)C(=O)N[C@@H](Cc1c[nH]c2ccccc12)C(N)=O` [YA-188, Ac-[D-Phe(2,4-DiCl)]-Hyp-Asn-Thr-Phe-Aze-Leu-Arg(Me)-Trp-NH2] (Ac-[dPhe(2,4-Cl2)][Hyp]NTF[Aze]L[Arg(Me)]W-NH2), the EC50 under setting [1] turned out to be 0.477 nM.

As to `CNC(=N)NCCC[C@H](NC(=O)[C@H](CC(C)C)NC(=O)[C@@H]1CCN1C(=O)[C@H](Cc1ccccc1)NC(=O)[C@@H](NC(=O)[C@H](CC(N)=O)NC(=O)[C@@H]1C[C@@H](O)CN1C(=O)[C@@H](Cc1ccco1)NC(C)=O)[C@@H](C)O)C(=O)N[C@@H](Cc1c[nH]c2ccccc12)C(N)=O` [YA-189, Ac-D-2Fua-Hyp-Asn-Thr-Phe-Aze-Leu-Arg(Me)-Trp-NH2] (Ac-[dAla(2-furyl)][Hyp]NTF[Aze]L[Arg(Me)]W-NH2), the EC50 under setting [1] amounted to 1.7 nM.

With `CNC(=N)NCCC[C@H](NC(=O)[C@H](CC(C)C)NC(=O)[C@@H]1CCN1C(=O)[C@H](Cc1ccccc1)NC(=O)[C@@H](NC(=O)[C@H](CC(N)=O)NC(=O)[C@@H]1C[C@@H](O)CN1C(=O)[C@H](Cc1ccc(F)cc1)NC(C)=O)[C@@H](C)O)C(=O)N[C@@H](Cc1c[nH]c2ccccc12)C(N)=O` [YA-190, Ac-Phe(4-F)-Hyp-Asn-Thr-Phe-Aze-Leu-Arg(Me)-Trp-NH2] (Ac-[Phe(4-F)][Hyp]NTF[Aze]L[Arg(Me)]W-NH2), the EC50 runs as follows: under setting [1], 3.89 nM; (NFAT-bla CHO-K1 cells that express human kiss1 receptor (GPR54), FRET, cells cultured with compound for 4 hours, read-out: GPR54 EC50/nM) 24.3 nM.

For the molecule `CNC(=N)NCCC[C@H](NC(=O)[C@H](CC(C)C)NC(=O)[C@@H]1CCN1C(=O)[C@H](Cc1ccccc1)NC(=O)[C@@H](NC(=O)[C@H](CC(N)=O)NC(=O)[C@H](Cc1cccs1)NC(=O)[C@@H](Cc1ccc(O)cc1)NC(C)=O)[C@@H](C)O)C(=O)N[C@@H](Cc1c[nH]c2ccccc12)C(N)=O` [YA-191, Ac-D-Tyr-Thi-Asn-Thr-Phe-Aze-Leu-Arg(Me)-Trp-NH2] (Ac-[dY][2Thi]NTF[Aze]L[Arg(Me)]W-NH2), the EC50 under setting [1] turned out to be 0.521 nM.

Turning to `CNC(=N)NCCC[C@H](NC(=O)[C@H](CC(C)C)NC(=O)[C@@H]1CCN1C(=O)[C@H](Cc1ccccc1)NC(=O)[C@@H](NC(=O)[C@H](CC(N)=O)NC(=O)[C@@H]1CC(F)(F)CN1C(=O)[C@@H](Cc1ccc(O)cc1)NC(C)=O)[C@@H](C)O)C(=O)N[C@@H](Cc1c[nH]c2ccccc12)C(N)=O` [YA-193, Ac-(D-Tyr)-Pro(diF)-Asn-Thr-Phe-Aze-Leu-Arg(Me)-Trp-NH2] (Ac-[dY][Pro(4,4-F2)]NTF[Aze]L[Arg(Me)]W-NH2), the EC50 under setting [1] worked out at 1.36 nM.

Regarding `CNC(=N)NCCC[C@H](NC(=O)[C@H](CC(C)C)NC(=O)[C@@H]1CCN1C(=O)[C@H](Cc1ccccc1)NC(=O)[C@@H](NC(=O)[C@H](CC(N)=O)NC(=O)[C@@H]1CCCCN1C(=O)[C@@H](Cc1ccc(O)cc1)NC(C)=O)[C@@H](C)O)C(=O)N[C@@H](Cc1c[nH]c2ccccc12)C(N)=O` [YA-194, Ac-D-Tyr-(S-Pip)-Asn-Thr-Phe-Aze-Leu-Arg(Me)-Trp-NH2] (Ac-[dY][Pip]NTF[Aze]L[Arg(Me)]W-NH2), the EC50 under setting [1] stood at 0.544 nM.

Turning to `CNC(=N)NCCC[C@H](NC(=O)[C@H](CC(C)C)NC(=O)C1(NC(=O)[C@H](Cc2ccccc2)NC(=O)[C@@H](NC(=O)[C@H](CC(N)=O)NC(=O)[C@@H]2C[C@@H](O)CN2C(=O)[C@@H](Cc2ccc(F)cc2)NC(C)=O)[C@@H](C)O)CCCCC1)C(=O)N[C@@H](Cc1c[nH]c2ccccc12)C(N)=O` [YA-195, Ac-[D-Phe(4-F)]-Hyp-Asn-Thr-Phe-A6c-Leu-Arg(Me)-Trp-NH2] (Ac-[dPhe(4-F)][Hyp]NTF[Ac6c]L[Arg(Me)]W-NH2), under setting [1], the EC50 worked out at 0.68 nM.

For the molecule `CNC(=N)NCCC[C@H](NC(=O)[C@H](CC(C)C)NC(=O)C1(NC(=O)[C@H](Cc2ccccc2)NC(=O)[C@@H](NC(=O)[C@H](CC(N)=O)NC(=O)[C@@H]2C[C@@H](O)CN2C(=O)[C@@H](Cc2ccc(Cl)cc2Cl)NC(C)=O)[C@@H](C)O)CCCCC1)C(=O)N[C@@H](Cc1c[nH]c2ccccc12)C(N)=O` [YA-196, Ac-[D-Phe(2,4-DiCl)]-Hyp-Asn-Thr-Phe-A6c-Leu-Arg (Me)-Trp-NH2] (Ac-[dPhe(2,4-Cl2)][Hyp]NTF[Ac6c]L[Arg(Me)]W-NH2), under setting [1], the EC50 is 0.48 nM.

In the case of `CNC(=N)NCCC[C@H](NC(=O)[C@H](CC(C)C)NC(=O)C1(NC(=O)[C@H](Cc2ccccc2)NC(=O)[C@@H](NC(=O)[C@H](CC(N)=O)NC(=O)[C@@H]2C[C@@H](O)CN2C(=O)[C@@H](Cc2ccco2)NC(C)=O)[C@@H](C)O)CCCCC1)C(=O)N[C@@H](Cc1c[nH]c2ccccc12)C(N)=O` [YA-197, Ac-(D-2Fua)-Hyp-Asn-Thr-Phe-A6c-Leu-Arg(Me)-Trp-NH2] (Ac-[dAla(2-furyl)][Hyp]NTF[Ac6c]L[Arg(Me)]W-NH2), under setting [1], the EC50 was found to be 0.57 nM.

With `CNC(=N)NCCC[C@H](NC(=O)[C@H](CC(C)C)NC(=O)C1(NC(=O)[C@H](Cc2ccccc2)NC(=O)[C@@H](NC(=O)[C@H](CC(N)=O)NC(=O)[C@@H]2C[C@@H](O)CN2C(=O)[C@H](Cc2ccc(F)cc2)NC(C)=O)[C@@H](C)O)CCCCC1)C(=O)N[C@@H](Cc1c[nH]c2ccccc12)C(N)=O` [YA-198, Ac-Phe(4-F)-Hyp-Asn-Thr-Phe-A6c-Leu-Arg(Me)-Trp-NH2] (Ac-[Phe(4-F)][Hyp]NTF[Ac6c]L[Arg(Me)]W-NH2), the EC50 under setting [1] amounted to 382 nM.

Turning to `CNC(=N)NCCC[C@H](NC(=O)[C@H](CC(C)C)NC(=O)C1(NC(=O)[C@H](Cc2ccccc2)NC(=O)[C@@H](NC(=O)[C@H](CC(N)=O)NC(=O)[C@H](Cc2cccs2)NC(=O)[C@@H](Cc2ccc(F)cc2)NC(C)=O)[C@@H](C)O)CCCCC1)C(=O)N[C@@H](Cc1c[nH]c2ccccc12)C(N)=O` [YA-199, Ac-[D-Phe(4-F)]-Thi-Asn-Thr-Phe-A6c-Leu-Arg(Me)-Trp-NH2] (Ac-[dPhe(4-F)][2Thi]NTF[Ac6c]L[Arg(Me)]W-NH2), the EC50 under setting [1] came to 15.6 nM.

`CNC(=N)NCCC[C@H](NC(=O)[C@H](CC(C)C)NC(=O)C1(NC(=O)[C@H](Cc2ccccc2)NC(=O)[C@@H](NC(=O)[C@H](CC(N)=O)NC(=O)N2CCCN2C(=O)[C@@H](Cc2ccc(Cl)cc2Cl)NC(C)=O)[C@@H](C)O)CCCCC1)C(=O)N[C@@H](Cc1c[nH]c2ccccc12)C(N)=O` [YA-200, Ac-D-Phe(2,4-DiCl)-azaPro-Asn-Thr-Phe-A6c-Leu-Arg(Me)-Trp-NH2] (Ac-[dPhe(2,4-Cl2)][azaPro]NTF[Ac6c]L[Arg(Me)]W-NH2): under setting [1], the EC50 came out at 25.4 nM.

Regarding `CNC(=N)NCCC[C@H](NC(=O)[C@H](CC(C)C)NC(=O)C1(NC(=O)[C@H](Cc2ccccc2)NC(=O)[C@@H](NC(=O)[C@H](CC(N)=O)NC(=O)[C@@H]2CCCCN2C(=O)[C@H](Cc2ccc(F)cc2)NC(C)=O)[C@@H](C)O)CCCCC1)C(=O)N[C@@H](Cc1c[nH]c2ccccc12)C(N)=O` [YA-202, Ac-Phe(4-F)-(S-Pip)-Asn-Thr-Phe-A6c-Leu-Arg(Me)-Trp-NH2] (Ac-[Phe(4-F)][Pip]NTF[Ac6c]L[Arg(Me)]W-NH2), the EC50 under setting [1] was 9.6 nM.

With `CNC(=N)NCCC[C@H](NC(=O)[C@H](CC(C)C)NC(=O)[C@@H]1CCN1C(=O)[C@H](Cc1ccccc1)NC(=O)[C@H](Cc1ccco1)NC(=O)[C@H](CC(N)=O)NC(=O)[C@@H]1C[C@@H](O)CN1C(=O)[C@@H](Cc1ccc(O)cc1)NC(C)=O)C(=O)N[C@@H](Cc1c[nH]c2ccccc12)C(N)=O` [YA-203, Ac-(D-Tyr)-Hyp-Asn-2Fua-Phe-Aze-Leu-Arg(Me)-Trp-NH2] (Ac-[dY][Hyp]N[Ala(2-furyl)]F[Aze]L[Arg(Me)]W-NH2), the EC50 under setting [1] was determined as 1.19 nM.

Consider `CNC(=N)NCCC[C@H](NC(=O)[C@H](CC(C)C)NC(=O)[C@@H]1CCN1C(=O)[C@H](Cc1ccccc1)NC(=O)[C@H](Cc1ccco1)NC(=O)[C@H](CC(N)=O)NC(=O)[C@H](Cc1cccs1)NC(=O)[C@@H](Cc1ccc(O)cc1)NC(C)=O)C(=O)N[C@@H](Cc1c[nH]c2ccccc12)C(N)=O` [YA-204, Ac-(D-Tyr)-Thi-Asn-2Fua-Phe-Aze-Leu-Arg(Me)-Trp-NH2] (Ac-[dY][2Thi]N[Ala(2-furyl)]F[Aze]L[Arg(Me)]W-NH2), for which the EC50 under setting [1] came to 8.72 nM.

In the case of `CNC(=N)NCCC[C@H](NC(=O)[C@H](CC(C)C)NC(=O)[C@@H]1CCN1C(=O)[C@H](Cc1ccccc1)NC(=O)[C@H](Cc1ccco1)NC(=O)[C@H](CC(N)=O)NC(=O)[C@@H]1CC(F)(F)CN1C(=O)[C@@H](Cc1ccc(O)cc1)NC(C)=O)C(=O)N[C@@H](Cc1c[nH]c2ccccc12)C(N)=O` [YA-205, Ac-(D-Tyr)-DiFluorPro-Asn-2Fua-Phe-Aze-Leu-Arg(Me)-Trp-NH2] (Ac-[dY][Pro(4,4-F2)]N[Ala(2-furyl)]F[Aze]L[Arg(Me)]W-NH2), the EC50 under setting [1] was found to be 50.3 nM.

Regarding `CNC(=N)NCCC[C@H](NC(=O)[C@H](CC(C)C)NC(=O)C1(NC(=O)[C@H](Cc2ccccc2)NC(=O)[C@@H](NC(=O)[C@H](CC(N)=O)NC(=O)[C@H](Cc2cccs2)NC(=O)[C@@H](Cc2ccc(Cl)cc2Cl)NC(C)=O)[C@@H](C)O)CCCCC1)C(=O)N[C@@H](Cc1c[nH]c2ccccc12)C(N)=O` [YA-206, Ac-[D-Phe(2,4-DiCl)]-Thi-Asn-Thr-Phe-A6c-Leu-Arg(Me)-Trp-NH2] (Ac-[dPhe(2,4-Cl2)][2Thi]NTF[Ac6c]L[Arg(Me)]W-NH2), the EC50 under setting [1] was found to be 3.6 nM.
